Laboratory results taken from patent US20050096224A1 (priority 2002, published 2005).

Tested on: G. pallida
Experiment: Test A: control of G. pallida by oxamyl on potted potato plants
Assay type: in vivo, Globodera pallida
Conditions: serial small doses at 4-day, 7-day or 14-day intervals over the hatching period vs equivalent dose (3.5, 4.5 or 5.5 kg ai/ha) in one application at planting; 70 days; initial 10 or 50 eggs/g of soil; potato in pots
Description: G. pallida is the more pernicious pest of potatoes. Studies have been conducted with Composition A comprising oxamyl as described above.
The test units consisted of large diameter pots each containing one potato plant, planted in soil amended with eggs of G. pallida at either 24 cysts per pot (estimated to be about 10 eggs/g of soil) or 120 cysts per pot (estimated to be about 50 eggs/g of soil). These pest burdens represent a level of infestation that would require treatment in order to prevent crop damage and potential multiplication of the pest (10 eggs/g of soil) and substantial yield loss (50 eggs/g of soil).
Composition A was introduced into the test units diluted in a constant volume of water. […] The dose at each application was applied in the same volume of water and in equal incremental quantities. […] The number of cysts attached to the roots per gram of root mass (washed free of soil) was determined at 70 days (10 weeks) after commencement of the trial. […]

SMILES: CNC(=O)ON=C(SC)C(=O)N(C)C [oxamyl, N,N-dimethyl-2-methylcarbamoyloxyimino-2-(methylthio)acetamide]
- control of cyst production by G. pallida (number of cysts attached to the roots per gram of root mass): superior control
